Assay results taken from US20240335452A1, “COMPOSITIONS AND METHODS OF COMBINATION THERAPY FOR TARGETING LYMPHOMA” (Cullgen (Shanghai), Inc., priority 2021, published 2024).
Entries after “also recorded” stand apart in the source; their conditions may differ.

Columns and labels:
SU-DHL-10 cells = assay: Cell viability assay (CellTiter-Glo) in SU-DHL-10 cells; type: cell-based, human; conditions: for cell viability, response of the cells to the single agent: SU-DHL-10, single agent; for IC50: Homo sapiens, SU-DHL10, 120 h, SU-DHL-10 cells (EZH2-mutant DLBCL), in the presence of 1 μM EPZ-6438, 5 days; for cell viability of the combination versus the compound alone (FIG. 2A, 2C): SU-DHL-10, combination with any of CC-122, CC-220, or CC-92480 (so in the source)
Description: (§1) Experiments were performed in cultured human cells to assess the efficacy of combined EZH2 inhibitor and immunomodulatory drug (e.g., an IMiD) treatment using an EZH2-mutant DLBCL cell line, SU-DHL-10, and an EZH2-wild type line, OCI-LY7. Cells were purchased from Nanjing Cobioer Biotechnology. SU-DHL-10 and OCI-LY7 cells were cultured at 37° C. with 5% CO2 in RPMI 1640 Medium supplemented with 10% fetal bovine serum. Cells were authenticated using the short tandem repeat (STR) assays. Mycoplasma test results were negative.
(§2) The cultured cells were seeded at a density of 5000 cells per well in 96-well assay plates and treated with test compounds at 10 μM followed by a 11-point 3-fold serial dilution or an 8-point 10-fold serial dilution. Cell viability was determined after 5 days, using the CellTiter-Glo assay kit (Promega) according to the manufacturer's instructions. The dose-response curves were determined and IC50 values were calculated using the GraphPad Prism software following a nonlinear regression (least squares fit) method. Each data point in the figure represents the mean values of at least two technical replicates ± standard deviation.
(§3) Cells were treated with EZH2 inhibitors in the presence of IMiDs at concentrations sufficient to induce degradation of IKZF1 and IKZF3 but not enough to kill cells. CC-122 and CC-220 were tested at a concentration of 1 μM; CC-92480 and CFT7455 were tested at a concentration of 1 nM; and CC-99282 was tested at a concentration of 10 nM.

OCI-LY7 cells = assay: Cell viability assay (CellTiter-Glo) in OCI-LY7 cells; type: cell-based, human; conditions: for cell viability, response of the cells to the single agent: OCI-LY7, single agent, 5 days; for IC50: Homo sapiens, 120 h, OCI-LY7 cells (EZH2-wild type), in the presence of 1 μM EPZ-6438, 5 days; for cell viability of the combination versus the compound alone (FIG. 2B, 2D): OCI-LY7, combination with any of CC-122, CC-220, or CC-92480 (so in the source)
Description: as §1, §2, §3

[1] = SU-DHL-10, in the presence of 1 μM CPI-1205, 5 days
[2] = SU-DHL-10, in the presence of 1 μM EPZ-6438, 5 days
[3] = SU-DHL-10, in the presence of 1 μM GSK126, 5 days
[4] = SU-DHL-10, in the presence of C24 (1 μM with CC-122, 2 μM with CC-220), 5 days
[5] = OCI-LY7, in the presence of 1 μM C24, 5 days
[6] = OCI-LY7, in the presence of 1 μM CPI-1205, 5 days
[7] = OCI-LY7, in the presence of 1 μM EPZ-6438, 5 days
[8] = OCI-LY7, in the presence of 1 μM GSK126, 5 days

IC50 (SU-DHL-10 cells) [µM]	IC50 (OCI-LY7 cells) [µM]	SMILES	cell viability, response of the cells to the single agent (SU-DHL-10 cells; 5 days)	cell viability, response of the cells to the single agent (OCI-LY7 cells)	cell viability of the combination versus the compound alone (FIG. 2A, 2C) (SU-DHL-10 cells)	cell viability (sensitivity of the cells to the compound in combination) (SU-DHL-10 cells; [1])	cell viability (sensitivity of the cells to the compound in combination) (SU-DHL-10 cells; [2])	cell viability (sensitivity of the cells to the compound in combination) (SU-DHL-10 cells; [3])	cell viability (sensitivity of the cells to the compound in combination) (SU-DHL-10 cells; [4])	cell viability of the combination versus the compound alone (FIG. 2B, 2D) (OCI-LY7 cells)	cell viability (sensitivity of the cells to the compound in combination) (OCI-LY7 cells; [5])	cell viability (sensitivity of the cells to the compound in combination) (OCI-LY7 cells; [6])	cell viability (sensitivity of the cells to the compound in combination) (OCI-LY7 cells; [7])	cell viability (sensitivity of the cells to the compound in combination) (OCI-LY7 cells; [8])	further results
		CCc1c(N(CC)C2CCOCC2)cc2oc(CN3CCCCC3)cc2c1C(=O)NCc1c(C)cc(C)[nH]c1=O [SHR2554, N-((4,6-dimethyl-2-oxo-1,2-dihydropyridin-3-yl)methyl)-5-ethyl-6-(ethyl(tetrahydro-2H-pyran-4-yl)amino)-2-(piperidin-1-ylmethyl)benzofuran-4-carboxamide]	modestly responsive	refractory											cell viability (sensitivity of the cells to the compound in combination) (SU-DHL-10 cells; SU-DHL-10, in the presence of 1 nM CFT7455, 5 days): highly sensitive; also recorded: lowered cell viability more than treatment with SHR2554 alone; cell viability (sensitivity of the cells to the compound in combination) (SU-DHL-10 cells; SU-DHL-10, in the presence of 10 nM CC-99282, 5 days): highly sensitive; also recorded: lowered cell viability more than treatment with SHR2554 alone; cell viability (sensitivity of the cells to the compound in combination) (OCI-LY7 cells; OCI-LY7, in the presence of 1 nM CFT7455, 5 days): highly sensitive; also recorded: lowered cell viability more than treatment with SHR2554 alone; cell viability (sensitivity of the cells to the compound in combination) (OCI-LY7 cells; OCI-LY7, in the presence of 10 nM CC-99282, 5 days): highly sensitive; also recorded: lowered cell viability more than treatment with SHR2554 alone
		CC[C@H](C)n1cc(C)c2c(C(=O)NCc3c(C)cc(C)[nH]c3=O)cc(-c3ccc(N4CCNCC4)nc3)cc21 [GSK126, (S)-1-(sec-butyl)-N-((4,6-dimethyl-2-oxo-1,2-dihydropyridin-3-yl)methyl)-3-methyl-6-(6-(piperazin-1-yl)pyridin-3-yl)-1H-indole-4-carboxamide]													cell viability (sensitivity of the cells to the compound in combination) (SU-DHL-10 cells; SU-DHL-10, in the presence of 1 nM CC-92480, 5 days): highly sensitive; also recorded: lowered cell viability more than treatment with GSK126 alone; cell viability (sensitivity of the cells to the compound in combination) (SU-DHL-10 cells; SU-DHL-10, in the presence of 1 μM CC-122, 5 days): highly sensitive; also recorded: lowered cell viability more than treatment with GSK126 alone; cell viability (sensitivity of the cells to the compound in combination) (SU-DHL-10 cells; SU-DHL-10, in the presence of 1 μM CC-220, 5 days): highly sensitive; also recorded: lowered cell viability more than treatment with GSK126 alone; cell viability (sensitivity of the cells to the compound in combination) (OCI-LY7 cells; OCI-LY7, in the presence of 1 nM CC-92480, 5 days): highly sensitive; also recorded: lowered cell viability more than treatment with GSK126 alone; cell viability (sensitivity of the cells to the compound in combination) (OCI-LY7 cells; OCI-LY7, in the presence of 1 μM CC-122, 5 days): highly sensitive; also recorded: lowered cell viability more than treatment with GSK126 alone; cell viability (sensitivity of the cells to the compound in combination) (OCI-LY7 cells; OCI-LY7, in the presence of 1 μM CC-220, 5 days): highly sensitive; also recorded: lowered cell viability more than treatment with GSK126 alone
0.089	0.38	Cc1nc2cccc(N)c2c(=O)n1C1CCC(=O)NC1=O (stereo not shown) [CC-122, avadomide]	refractory	modestly responsive	lowered cell viability more than treatment with CC-122 alone	highly sensitive	highly sensitive	highly sensitive	highly sensitive	lowered cell viability more than treatment with CC-122 alone	highly sensitive	highly sensitive	highly sensitive	highly sensitive	
0.0095	0.03	O=C1CC[C@H](N2Cc3c(OCc4ccc(CN5CCOCC5)cc4)cccc3C2=O)C(=O)N1 [CC-220, iberdomide]	refractory	modestly responsive	lowered cell viability more than treatment with CC-220 alone	highly sensitive	highly sensitive	highly sensitive	highly sensitive	lowered cell viability more than treatment with CC-220 alone	highly sensitive	highly sensitive	highly sensitive	highly sensitive	
